Converted amounts (≈) assume the structure as drawn.
Assays:
[1] = system: A. baumannii Ab19; assay: BMD susceptibility test; type: cell-based, Acinetobacter baumannii; conditions: unit assumed
[2] = system: bacteria contained in alveolar lavage fluid; assay: FDAA metabolic labeling susceptibility test of alveolar lavage fluid (Cy5-DAA probe); type: cell-based; conditions: alveolar lavage fluid of patients with hospital acquired pneumonia, 2 hours
Experimental: (§1) With reference to the flow chart of the rapid detection method of antimicrobial susceptibility test based on FDAA metabolic markers shown in FIG. 3, FDAA is used for the detection of antimicrobial susceptibility test of alveolar lavage fluid. The specific experimental steps are as follows: • 1. Mix bronchoalveolar lavage fluid (BALF, 10 ml) of patients with hospital acquired pneumonia with cation regulated broth medium (CAMHB, 10 ml) of twice the concentration to prepare the bacterial fluid to be tested. • 2. Add 45 μl antibiotic solutions of different concentrations to the 96-well plate separately (see Table 1 for antibiotic concentration gradient settings). • 3. Add 50 μl of the bacterial solution prepared in step 1 to the 96-well plate and mix well. • 4. Add 5 μl of 10 mM Cy5-DAA probe (final concentration 0.15 mM, see FIG. 1 for its structure) into each well, mix well, and then cultivate in dark for 2 hours. • 5. Add 200 μl PBS solution for dilution, and then use flow cytometry to detect the fluorescence intensity of each sample.

[3] = system: A. baumannii Ab16; assay: BMD susceptibility test; type: cell-based, Acinetobacter baumannii; conditions: unit assumed
[4] = system: K. pneumoniae Kp6; assay: FaAST (FDAA metabolic labeling); type: cell-based, Klebsiella pneumoniae; conditions: unit assumed
Experimental: (§2) The specific experimental steps are as follows: • 1. Take the colony to be tested that has been cultured overnight on the plate and fully mix it in normal saline to make a uniform bacterial solution. Dilute it into CAMHB medium to make a bacterial solution with OD600=0.05. • 2. Add 45 μl antibiotic solutions to be tested of different concentrations to 96-well plates (see Table 3 for antibiotic concentration gradient settings). • 3. Add 50 μl of bacterial solution prepared in Step 1 to the 96-well plate and mix well. • 4.5 μl of 10 mM Cy5-DAA probe was added to each well (final concentration was 0.15 mM, and its structure was shown in FIG. 1). After mixing, the probe was incubated for 2 hours in the dark. • 5. After dilution with 200 μl PBS solution, the fluorescence intensity of each sample was detected by flow cytometry.

[5] = system: Escherichia coli ECO15; assay: FaAST with DAA-Cy5-2 probe; type: cell-based; conditions: unit assumed
Experimental: as §1
The specific steps are the same as in Example 5. […] The minimum inhibitory concentration of antibiotics was obtained according to the fluorescence signal intensity of flow detection, and the statistical results are shown in Table 7.

[6] = system: E. coli Ec13; assay: FaAST (FDAA metabolic labeling); type: cell-based, Escherichia coli; conditions: unit assumed
Experimental: as §2

[7] = system: Ec ATCC 25922; assay: FaAST (FDAA metabolic labeling); type: cell-based, Escherichia coli; conditions: unit assumed
Experimental: as §2, with “cytometry. The flow detection results are shown in the attached FIG. 4-5, showing the curve of antibiotic concentration gradient and fluorescence intensity, and the MIC (minimum inhibitory concentration) is obtained by referring to this curve.” for “cytometry.”
(§3) Antibiotic resistant strains are shown in bold in the table below.

[8] = system: E. coli Ec11; assay: FaAST (FDAA metabolic labeling); type: cell-based, Escherichia coli; conditions: unit assumed
Experimental: as §2, with “cytometry. The flow detection results are shown in the attached FIG. 4-5, showing the curve of antibiotic concentration gradient and fluorescence intensity, and the MIC (minimum inhibitory concentration) is obtained by referring to this curve.” for “cytometry.”
as §3

[9] = system: P. aeruginosa Pa2; assay: BMD susceptibility test; type: cell-based, Pseudomonas aeruginosa; conditions: unit assumed
[10] = system: K. pneumoniae Kp9; assay: BMD susceptibility test; type: cell-based, Klebsiella pneumoniae; conditions: unit assumed
[11] = system: Escherichia coli ECO15; assay: VITEK drug sensitivity test; type: cell-based; conditions: unit assumed
[12] = system: bacteria contained in alveolar lavage fluid; assay: Vitek 2 drug sensitivity test of alveolar lavage fluid; type: cell-based; as to Sensibility: key: S: Drug sensitive; R: Drug resistance
[13] = system: E.coli 1113; assay: Vitek 2 drug sensitivity test; type: cell-based, Escherichia coli; also: key: S: Drug sensitive; R: Drug resistance
[14] = system: Escherichia coli ECO922; assay: FaAST with DAA-Tetra probe; type: cell-based; conditions: unit assumed
Experimental: The specific experimental steps are as follows: • 1. The tested colonies cultured overnight on the plate were picked and mixed thoroughly in 2× Cation-Adjusted Mueller Hinton Broth medium (2×CAMHB) to make bacterial suspension with turbidity of OD600=0.1. • 2. […] Add 50 μL of the bacterial solution prepared in step 1 (the final concentration of the bacterial solution is OD600=0.05) to the 96-well plate, and add 5 μL of 3 mM DAA-Tetra probe (the final concentration is 0.15 mM), mix well, and incubate in the dark at 37° C. 120 rpm for 2 hours. • 4. After culture, dilute the mixed bacterial solution 10 times with PBS solution, and detect the fluorescence intensity of each sample with flow cytometry. The flow detection result is shown in FIG. 14-19, and the arrow is for the MIC value. The minimum inhibitory concentration of antibiotics was obtained according to the fluorescence signal intensity of flow detection, and the statistical results are shown in Table 6.

[15] = system: E.coli 1113; assay: FDAA metabolic labeling susceptibility test (Cy5-DAA probe, flow cytometry); type: cell-based, Escherichia coli; conditions: Escherichia coli; E.coli 1113; Cy5-DAA probe, 2 hours; read-out: MIC, FDAA
Experimental: as §2, with “cytometry. The flow detection results are shown in the attached FIG. 4-5, showing the curve of antibiotic concentration gradient and fluorescence intensity, and the MIC (minimum inhibitory concentration) is obtained by referring to this curve.” for “cytometry.”

[16] = system: E.coli 1146; assay: as above; type: cell-based, Escherichia coli; conditions: Escherichia coli; E.coli 1146; Cy5-DAA probe, 2 hours; read-out: MIC, FDAA
Experimental: as §2, with “cytometry. The flow detection results are shown in the attached FIG. 4-5, showing the curve of antibiotic concentration gradient and fluorescence intensity, and the MIC (minimum inhibitory concentration) is obtained by referring to this curve.” for “cytometry.”

[17] = system: Ec ATCC 25922; assay: BMD susceptibility test; type: cell-based, Escherichia coli; conditions: unit assumed
[18] = system: E. coli Ec13; assay: BMD susceptibility test; type: cell-based, Escherichia coli; conditions: unit assumed
[19] = system: P. aeruginosa Pa3; assay: BMD susceptibility test; type: cell-based, Pseudomonas aeruginosa; conditions: unit assumed
[20] = system: A. baumannii Ab19; assay: FaAST (FDAA metabolic labeling); type: cell-based, Acinetobacter baumannii; conditions: unit assumed
Experimental: as §2, with “cytometry. The flow detection results are shown in the attached FIG. 4-5, showing the curve of antibiotic concentration gradient and fluorescence intensity, and the MIC (minimum inhibitory concentration) is obtained by referring to this curve.” for “cytometry.”
as §3

[21] = system: Pa ATCC 27853; assay: BMD susceptibility test; type: cell-based, Pseudomonas aeruginosa; conditions: unit assumed
[22] = system: Escherichia coli ECO922; assay: VITEK drug sensitivity test; type: cell-based; conditions: unit assumed
[23] = system: P. aeruginosa Pa3; assay: FaAST (FDAA metabolic labeling); type: cell-based, Pseudomonas aeruginosa; conditions: unit assumed
Experimental: as §2, with “cytometry. The flow detection results are shown in the attached FIG. 4-5, showing the curve of antibiotic concentration gradient and fluorescence intensity, and the MIC (minimum inhibitory concentration) is obtained by referring to this curve.” for “cytometry.”
as §3

[24] = system: P. aeruginosa Pa2; assay: FaAST (FDAA metabolic labeling); type: cell-based, Pseudomonas aeruginosa; conditions: unit assumed
Experimental: as §2, with “cytometry. The flow detection results are shown in the attached FIG. 4-5, showing the curve of antibiotic concentration gradient and fluorescence intensity, and the MIC (minimum inhibitory concentration) is obtained by referring to this curve.” for “cytometry.”
as §3

[25] = system: Pa ATCC 27853; assay: FaAST (FDAA metabolic labeling); type: cell-based, Pseudomonas aeruginosa; conditions: unit assumed
Experimental: as §2, with “cytometry. The flow detection results are shown in the attached FIG. 4-5, showing the curve of antibiotic concentration gradient and fluorescence intensity, and the MIC (minimum inhibitory concentration) is obtained by referring to this curve.” for “cytometry.”
as §3

[26] = system: E.coli 1146; assay: Vitek 2 drug sensitivity test; type: cell-based, Escherichia coli; as to Sensibility: key: S: Drug sensitive; R: Drug resistance
[27] = system: A. baumannii Ab16; assay: FaAST (FDAA metabolic labeling); type: cell-based, Acinetobacter baumannii; conditions: unit assumed
Experimental: as §2

[28] = system: K. pneumoniae Kp6; assay: BMD susceptibility test; type: cell-based, Klebsiella pneumoniae; conditions: unit assumed
[29] = system: E. coli Ec11; assay: BMD susceptibility test; type: cell-based, Escherichia coli; conditions: unit assumed

For `C[C@@H](O)[C@H]1C(=O)N2C(C(=O)O)=C(SCCN=CN)C[C@H]12` [Imipenem, imipenem], the BMD (MIC) [1] was at most 0.25 µg/mL, the “MIC, FDAA” value [2] was at least 256 µg/mL and the BMD (MIC) [3] was 32 µg/mL. It also gave a FaAST (MIC) [4] of 1 µg/mL, an MIC, FaAST [5] of 128 µg/mL (≈ 428 µM) and a FaAST (MIC) [6] of 128 µg/mL. It also gave a FaAST (MIC) [7] of 1 µg/mL, a FaAST (MIC) [8] of 1 µg/mL and a BMD (MIC) [9] of 1 µg/mL. It also gave a BMD (MIC) [10] of 128 µg/mL, an MIC, VITEK [11] of 128 µg/mL (≈ 428 µM) and an MIC [12] of at least 16 µg/mL. The Sensibility [12] was “R”, the Sensibility [13] was “R” and the MIC, FaAST [14] was 1 µg/mL (≈ 3.34 µM). For the same molecule, the MIC [15] was at least 128 µg/mL, the MIC [16] was 0.5 µg/mL (≈ 1.67 µM) and the BMD (MIC) [17] was at most 0.25 µg/mL. For the same molecule, the BMD (MIC) [18] was 16 µg/mL, the BMD (MIC) [19] was 32 µg/mL and the FaAST (MIC) [20] was 1 µg/mL. The BMD (MIC) [21] was 2 µg/mL, the MIC, VITEK [22] was 1 µg/mL (≈ 3.34 µM) and the FaAST (MIC) [23] was 32 µg/mL. The FaAST (MIC) [24] was 1 µg/mL, the FaAST (MIC) [25] was 1 µg/mL and the Sensibility [26] was “S”. The MIC ([26]; Escherichia coli) was at most 1 µg/mL, the FaAST (MIC) [27] was 64 µg/mL and the BMD (MIC) [28] was at most 0.25 µg/mL. For the same molecule, the BMD (MIC) [29] was at most 0.25 µg/mL.

— patent publication US20240240224A1, “FLUORESCENT D-TYPE AMINO ACID METABOLISM MARKER-BASED METHOD FOR DETECTING ANTIBACTERIAL DRUG SENSITIVITY TEST” (priority 2020, published 2024)
